Where two headings read alike, the source gives them in different places.
Experiments:
in vivo [1] = settings: male, Sprague-Dawley, rat, plasma, oral, 4 mEq/kg
Description: (§1) Male Sprague Dawley rats weighing 200-250 grams were housed in a vivarium with a 12 hour light-dark cycle. The rats were allowed to acclimate for a period of one week before any experiments were carried out, and were allowed free access to food and water throughout the experiment.
(§2) Animals in each treatment group were euthanized at 2, 24, 48, and 72 hours (n=3/time point) and blood was collected by cardiac puncture and carefully perfused with a pressure-controlled pump to maintain microvasculature integrity before removing brain tissue. Blood was centrifuged at 1600×g at room temperature for 10 minutes and plasma was separated. A 500 μl aliquot was diluted 10 fold in a 5% TCA and 10% IPA solution, vortexed and allowed to sit for 10 minutes in order to precipitate proteins. These aliquots were centrifuged at 3000×g for 30 minutes and the supernatant was transferred to clean tubes prior to measuring lithium content using atomic absorption spectroscopy (AAS). Brains were rinsed with PBS, weighed, and an equal volume of concentrated HNO3 was added. The brains were heated in nitric acid solution for 1 hour, allowed to cool to room temperature, then centrifuged at 3000×g for 1 hour. The supernatant was removed and diluted 10 fold in 10% IPA prior to measuring lithium content using AAS.
(§3) The reported parameters include CMAX, TMAX, area under curve (AUC), and apparent terminal half-life (HL_Lambda_z).
(§4) Lithium was measured using atomic absorption spectroscopy (AAS) (Shimadzu AA-6200; Shimadzu Scientific Instruments, Inc., Columbia, Md.). Peak height measurements were carried out referring to values obtained for standards of known concentrations. Lithium measurements were plotted using GraphPad PRISM software (GraphPad Software, Inc., La Jolla, Calif.) as mean±SEM and two tailed t-tests were used to assess the statistical significance at each time point for the pharmacokinetic curves. The criterion for rejection of the null hypothesis was p<0.05.

[2] = for AUC(0-72): 0-72 h; for TMAX: noncompartmental analysis; for time of peak lithium plasma level (FIG. 2-3): post-dose
Description: as §1, §2, §3, §4

[3] = for AUC(0-72): 0-72 h; for TMAX: noncompartmental analysis; for time of peak brain lithium level (FIG. 4-5): post-dose
Description: as §1, §2, §3, §4

in vivo [4] = settings: male, Sprague-Dawley, rat, brain, oral, 4 mEq/kg
Description: as §1, §2, §3, §4

[5] = rats; carbonate vs chloride vs orotate; cited from earlier work
[6] = cited from earlier work
[7] = previous reports; cited from earlier work
[8] = Blood, rats, 4 mEq/kg oral gavage
[9] = Brain, rats, 4 mEq/kg oral gavage

SMILES	CMAX [2, 8] [µg/mL]	AUC(0-72) [2, 8] [µg·h/mL]	TMAX [2, 8] [h]	time of peak lithium plasma level (FIG. 2-3) ([2]; plasma, rats)	AUC(0-72) [3, 9] [µg·h/g]	TMAX [3, 9] [h]	time of peak brain lithium level (FIG. 4-5) ([3]; brain, rats) [h]	differences in uptake, distribution and excretion of the lithium ion [5]	lithium plasma level by 48 hours ([2]; plasma)	lithium plasma level by 72 hours ([2]; plasma)	brain lithium level at 24 hours ([3]; brain)	brain lithium level by 72 hours ([3]; brain)	other results
O=C([O-])c1ccccc1O.[Li+] [Lithium Salicylate, lithium salicylate]	2.21	121.8	24	around 48 hours	153.1	48	48	–	–	–	–	–	concentration at 24 h (in vivo [1]): 2100 ng/mL; concentration at 48 h (in vivo [1]): 2000 ng/mL; concentration at 72 h (in vivo [1]): ~250 ng/mL; concentration at 24 h (in vivo [4]): ~2500 ng/mL; concentration at 48 h (in vivo [4]): 3000 ng/mL; concentration at 72 h (in vivo [4]): 2000 ng/mL
O=C([O-])c1cc(=O)[nH]c(=O)[nH]1.[Li+] [lithium orotate]	–	–	–	–	–	–	–	no differences	–	–	–	–	–
CC(O)C(=O)[O-].[Li+] (stereo not drawn) [Lithium Lactate, lithium lactate]	4.54	157.2	24	24 h	152.0	24	24	–	about 0.5 μg/ml	around 0 μg/ml	around 4 μg/ml	negligible levels	HL_Lambda_z (apparent terminal half-life) [2, 8]: 6.9 h; HL_Lambda_z (apparent terminal half-life) [3, 9]: 13.0 h
[Li] [lithium]	–	–	–	–	–	–	–	–	–	–	–	–	elimination half-life ([6]; acute treatment): 24 h; CNS levels of lithium relative to plasma levels ([6]; in vivo): approximately 40%; serum levels considered toxic ([6]; in vivo): ≥ 2.0; serum levels that increase the likelihood of toxicity and detrimental effects ([6]; in vivo): greater than 1.5 mEq/l; time to peak plasma levels after overdoses ([6]; overdose): 72 h; elimination half-life ([6]; some chronically treated individuals): ≤ 60 h
O=C([O-])[O-].[Li+].[Li+] [lithium carbonate, reference compound]	–	–	–	24 h	–	–	24	no differences	about 0.5 μg/ml	around 0 μg/ml	8 µg/mL	about 0.5 μg/ml	peak lithium plasma level relative to lithium lactate ([2]; plasma, 24 hours): about 2.5 times; lithium plasma level at 24 hours (peak) ([2]; plasma, 24 hours post-dose): about 12 μg/ml; time to elimination [7]: ≤ 48 h; brain lithium level at 48 hours ([3]; brain, 48 hours): about 3.8 μg/ml
[Cl-].[Li+] [lithium chloride]	–	–	–	–	–	–	–	no differences	–	–	–	–	–

Reference: patent US9744189B1, “Compositions of lithium salts and methods of use” (University of South Florida, priority 2013, dated 2017)
